Where only a bound is given, the exact number is not on record here.

Compound `COc1ccc(CC(=O)c2ccc(OC)c(F)c2)cc1` registered a melting point of 142 to 143 °C.

Take `COc1ccc(C(O)c2ccccc2)cc1OC1CCCC1` (centres undefined): the melting point lay within 82.5 to 83 °C.

Compound `CCS(=O)c1cc2c(c3c1OC(C)(C)C3)C(c1ccccc1)=NC(C)(C)C2` (centres undefined) gave a melting point of 146 to 147 °C.

`Cn1ncc2c(c1=O)OCCNC2Cc1ccccc1` (centres undefined) returned a melting point of 113 to 115 °C.

`O=C(O)c1ccccc1C(=O)OCC1CN(C(=O)Oc2ccccc2)CCC1c1ccc(F)cc1` (centres undefined): the melting point lay in the range of 149 to 151 °C.

In the case of `Oc1ccc2c(-c3ccccc3O)noc2c1`, the melting point fell in the range of 164 to 166 °C.

With `Cn1c(CO)cc2ccccc21`, the melting point amounted to 92.8 °C.

The compound `COC(=O)CCc1ccc(Sc2ccccc2C(=O)O)c([N+](=O)[O-])c1` registered a melting point of 160 to 161 °C.

`Cc1ccccc1[C@@H]1CN(C(=O)C2CCN(C(=O)CO)CC2)CC[C@H]1C(=O)N(C)Cc1cc(C(F)(F)F)cc(C(F)(F)F)c1` (relative stereo) registered a melting point of 173 to 174 °C.

In the case of `NC(=O)C1(CCCCCCCCCCCCC2(C(=O)O)CC2)CC1`, the melting point fell in the range of 117 to 118 °C.

As to `CC1(C)COc2ccc(C[C@@H](NC(=O)c3ccc(F)c4ccccc34)[C@@H](O)c3cccc(Cl)c3)cc21` (racemic), the melting point lay in the range of 131 to 133 °C.

`CC(C)(Oc1ccc(-c2ccc(CCNC(=O)c3ccccc3)cc2)cc1)C(=O)O` returned a melting point of 179 °C.

`N#CCc1cc(I)cc(Cc2nc3c(F)c(F)cc(F)c3s2)c1` came in with a melting point of 127 to 130 °C.

`COC(=O)C1=C(C)NC(C)=C(C(=O)OCCN)C1c1cccc2c(=O)c(C)c(-c3ccccc3)oc12` (centres undefined): the melting point was in the range of 188 to 192 °C.

Turning to `CCOC(=NC(=O)c1ccc(C(F)(F)F)cc1)N1Cc2ccccc2-c2ccccc2C1`, the melting point lay in the range of 112 to 113 °C.

`CCNc1cncc(S(=O)(=O)N(CC)CC)c1` gave a melting point of 58 to 60 °C.

As for `COc1cc2c(cc1C(F)(F)F)N(C(=O)Nc1cncc(Br)c1)CC2`, the melting point lay in the range of 220 to 222 °C.

The compound `O=C(O)c1sc2cc(OCc3cccnc3)ccc2c1S(=O)c1ccccc1CO` (centres undefined) came in with a melting point of 210 °C.

In turn, `COc1nc(C)nc(OC)c1C=S` had a melting point of 136 °C.

As to `CN(Cc1cn[nH]c1)C1CCN(C(=O)c2ccc(Nc3nccc(Nc4ccc(F)cc4)n3)cc2)CC1`, the melting point was 140 to 145 °C.

In turn, `Cc1nc(C)c(Cl)c(NCc2ccc(Oc3ccc4ncc([N+](=O)[O-])n4n3)c(OCC3CC3)c2)n1` showed a melting point of 178 to 180 °C.

`CCCCc1c(-c2ccccc2)nc(N)nc1-c1ccccc1` returned a melting point of 154 to 155 °C.

`CN1CC(c2ccc(S(C)(=O)=O)cc2)=C(c2ccc(Br)cc2)C1=O`: the melting point was 161 to 163 °C.

As for `Cc1cccc(NC(=O)N(C)Cc2cccc3c2C(=O)N(C2CCC(=O)NC2=O)C3=O)c1` (centres undefined), the melting point lay in the range of 212 to 215 °C.

The compound `CCOC(=O)C1=C(N)Nc2ccnc(OC(C)C)c2C1c1ccccc1C(F)(F)F` (centres undefined) had a melting point of 173 to 175 °C.

The compound `CC(=O)OC(OC(C)=O)c1ccc(C#N)cc1` had a melting point of 104 to 107 °C.

Turning to `CCn1ncc2c(NCc3cccnc3)c3ccccc3nc21`, the melting point lay in the range of 282 to 284 °C.

The compound `CCc1oc(CCOc2ccc(N)cc2)nc1-c1ccccc1` registered a melting point of 89 to 90 °C.

The compound `ON=C(c1cccs1)c1cccc2nc(N[C@@H]3CCc4ccccc43)ccc12` had a melting point of 180 °C.

For the compound `Cc1onc(-c2ccccc2)c1C(=O)NCCCN1CCN(c2ccc(F)cc2OCC(F)(F)F)CC1`, the melting point is 112 to 135 °C.

Consider `CCNC(=O)Nc1cn(-c2cccnc2)nc1C`, for which the melting point is 197 to 200 °C.

For `O=Cc1ccc(Cl)c(OCCCC(=O)N(CCO)CCCCC2CCCC2)c1[N+](=O)[O-]`, the melting point lay within 107 to 108 °C.

Take `CC(C)N1c2ccccc2N(C(C)C)c2ccccc21`: the melting point was in the range of 80 to 81 °C.

The compound `O=C(OCc1ccccc1)c1ncoc1CCNC(=O)[C@H](Cc1cccs1)N[C@@H](CCc1ccccc1)C(=O)OCc1ccccc1` came in with a melting point of 81 to 83 °C.

On to `COc1ccc2nc(C(=O)NCC(=O)O)c(OCc3ccccc3)cc2c1`, for which the melting point worked out at 118 °C.

On to `CC(C)(CCO)c1ccc2ncc(C(=O)NCc3ccc(Cl)cc3)c(O)c2c1`, for which the melting point lay within 184 to 192 °C.

In the case of `CC(OP(=O)(c1ccccc1)c1ccccc1)c1ccccc1C(C)OP(=O)(c1ccccc1)c1ccccc1` (centres undefined), the melting point was in the range of 147 to 148 °C.

Turning to `Cc1nc(C(F)(F)F)ccc1C(=O)C1=C(Sc2ccc(Cl)cc2)C2CCC(C2)C1=O` (centres undefined), the melting point lay within 130 to 131 °C.

Take `CCNC(=O)Nc1nc2cc(-c3cnc(OC)nc3)ccn2n1`: the melting point was in the range of 243 to 248 °C.

In the case of `CCCn1c(=O)c2c(C(=O)OCCN(C)C)ncn2c2ccccc21`, the melting point was in the range of 115 to 118 °C.

The compound `COCc1nc(C=NNC(=S)SC)c[nH]1` registered a melting point of 150 to 154 °C.

The compound `COC(=O)c1cc(I)c(OC)c2c1OCO2` yielded a melting point of 162 to 164 °C.

Turning to `CSc1sc(C=O)cc1C=O`, the melting point was in the range of 135 to 137 °C.

Compound `Cc1ccc(S(=O)(=O)Nc2ccc3[nH]c(=O)c4ccccc4c3c2)cc1` registered a melting point of 199 to 203 °C.

`COCC1CN(c2ccc(C3CC4C=CC3C4)cc2)C(=O)O1` (racemic) returned a melting point of 46 to 48 °C.

In turn, `COc1ccc(Cl)cc1C(=O)NS(=O)(=O)c1ccc(C(=O)Cl)cc1` returned a melting point of 138 to 140 °C.

On to `COc1cccc(OC)c1C(=O)Nc1ccc(OCCN2CCCCC2)cc1`, for which the melting point is 114 to 118 °C.

Compound `C=CCCCCCCCCCOc1ccc(-c2ccc(OCCCCCCCCCCCBr)cc2)cc1` came in with a melting point of 93 to 94 °C.

Compound `C=CCc1cc(C(=O)c2ccnn2C)c(Cl)c(Cl)c1OCC(=O)O` came in with a melting point of 111 to 113 °C.

In the case of `CC(=O)NC(Cc1ccccc1)C(C)=O` (centres undefined), the melting point lay within 96 to 97 °C.

In turn, `CC(C)(C)C(=O)NC#N` returned a melting point of 112 to 118 °C.

With `Cc1noc(-c2cccc(CN3CCN(c4ccc(NC(=O)OC(C)(C)C)cc4)CC3)c2)n1`, the melting point was in the range of 159 to 161 °C.

`Cc1nn(C)c2c(O)nc(C3CC3)nc12` gave a melting point of 238 to 240 °C.

As for `NS(=O)(=O)c1ccc(-c2cnn(-c3ccc(F)c(F)c3)c(=O)c2Oc2ccc(F)cc2)cc1F`, the melting point fell in the range of 224 to 226 °C.

`Fc1cc(F)c2c(c1)C[C@@H](n1c(CCNCc3ccccc3)c[nH]c1=S)CO2` displayed a melting point of 188 to 190 °C.

For the compound `C=C1C(=O)c2ccccc2OC1c1ccc(N(C)C)cc1` (centres undefined), the melting point lay within 110 to 112 °C.

As for `N#Cc1c(O)nc2onc(-c3ccccc3)c2c1N`, the melting point is 251 °C.

Compound `CCOC(=O)Cc1ccc(Nc2ncc3c(n2)N(C)C(=O)N(c2c(Cl)cccc2Cl)C3)cc1` yielded a melting point of 211 to 212 °C.

Compound `CCCc1c(OCCCCC#N)ccc(C(=O)c2ccccc2O)c1O` returned a melting point of 81 to 82 °C.

The compound `CC(C(N)=O)c1ccc2nc(-c3ccccc3)oc2c1` (centres undefined) gave a melting point of 193 °C.

Turning to `CN(C(=O)Nc1nc(OCC(F)(F)F)nc(OCC(F)(F)F)n1)c1ccc(C(F)(F)F)cc1`, the melting point is 130 to 132 °C.

For `CC(=O)Nc1nc(N)nc(-c2ccc(-c3ccccc3)cc2)n1`, the melting point was over 260 °C.

As to `COC(=O)c1cc(C)cc(C(C)(C)C#N)c1`, the melting point was 53.8 to 55.9 °C.

`CCN(C(=S)Nc1cc(Cl)ccc1C)c1c(C)nn(C)c1C` showed a melting point of 144 to 145 °C.

Turning to `O=C1NCC(c2cccs2)SCC1N1C(=O)c2ccccc2C1=O` (centres undefined), the melting point lay within 183 to 184 °C.

Compound `CCCCCCCCCCCCc1c[nH]cn1` came in with a melting point of 69 to 71 °C.

Compound `CCOC(=O)c1ccc(C#CCO)cc1` gave a melting point of 58 to 60 °C.

On to `CC(C)c1c(C(=O)Nc2ccc(C(=O)O)cc2)c(-c2ccccc2)c(-c2ccc(F)cc2)n1CC[C@@H]1C[C@H](CC(=O)OC(C)(C)C)OC(C)(C)O1`, for which the melting point was in the range of 240 to 242 °C.

In turn, `CCC(Cl)c1nc2cccnc2[nH]1` (centres undefined) registered a melting point of 137 °C.

Turning to `CC[N+]1([O-])CCC(O)(c2cc(F)cc(Cl)c2)C1` (centres undefined), the melting point was in the range of 158 to 160 °C.

Compound `Cn1ncc2nn(-c3cc(C(F)(F)F)ccc3F)c(=O)c(Cl)c21` came in with a melting point of 177 to 182 °C.

`COc1ccc(-c2[nH]nc3c2C(=O)c2c(NC(=O)C4CC4)cccc2-3)cc1` showed a melting point of 289 °C.

`CCOC(=O)c1ncc2[nH]c3cccc(OC4CCC4)c3c2c1COC` displayed a melting point of 196 to 197 °C.

The compound `CCC(Oc1c(F)ccc(C)c1F)C1=NCCN1` (centres undefined) showed a melting point of 70.5 to 71 °C.

In turn, `O=C(O)c1cc2cc3[nH]c(=O)oc3cc2[nH]1` yielded a melting point of 288 to 290 °C.

As to `Cc1cn([C@H]2C=C[C@@H](O)C2)c(=O)nc1N` (racemic), the melting point lay within 190 to 192 °C.

Regarding `CS(=O)(=O)c1ccc(Oc2ccc(Cc3ccccc3)cc2)cc1`, the melting point lay within 109 to 110 °C.

Consider `COc1ccc(OCc2ccc(C(=O)c3ccccc3)cc2)cc1OC`, for which the melting point was 74 to 75 °C.

Regarding `CN(C)CCCOc1ccc(C[C@H](NC(=O)[C@@H]2CCCN2S(=O)(=O)c2ccc(Cl)s2)C(=O)O)cc1`, the melting point was over 200 °C.

Compound `CCCC1=C(C)C(=O)c2oc(Cc3ccc(OC)cc3)c(C)c2C1=O` had a melting point of 114 °C.

For the compound `N#Cc1ccc(-c2ccc(OCCCCCCC(=O)NO)cc2)cc1`, the melting point is 79 to 82 °C.

`COCCOc1cc2c(Nc3cc(OC)c(Cl)cc3Cl)c(C#N)cnc2cc1OCC1CCN(C)CC1`: the melting point was in the range of 153 to 155 °C.

Regarding `Cc1ccc2[nH]c(=O)n(CCS)c(=O)c2c1`, the melting point is 309 to 311 °C.

Regarding `CC(C)C(N)=C(C#N)C(N)=S`, the melting point lay in the range of 112 to 114 °C.

Consider `CC=CC(=O)C1=C(C)C(=O)CCC1(C)C`, for which the melting point was 68 to 69 °C.

In the case of `NS(=O)(=O)c1cccc(C2(O)CCCCC2)c1`, the melting point was 172 to 176 °C.

As to `Cc1ccc(C=C2c3ncc(C)cc3CCC2(C)C)cc1`, the melting point worked out at 153 °C.

In turn, `COc1c(C)cc(C(=O)c2cc(-c3ccc(NC(C)=O)cc3)c(N3CCOCC3)s2)nc1C` had a melting point of 145 °C.

`CCOC(=O)C1=NN(c2cccc(Cl)c2)C(c2ccccc2)CC1` (centres undefined): the melting point lay in the range of 125 to 126 °C.
